Here are results for one compound from publication PMC10610198, “Inhibitory Activity of Natural cis-Khellactone on Soluble Epoxide Hydrolase and Proinflammatory Cytokine Production in Lipopolysaccharides-Stimulated RAW264.7 Cells” (Plants, 2023).

In this experiment the target is T1, soluble epoxide hydrolase (sEH) (Homo sapiens, UniProt P34913).
T1 construct: gene EPHX2
T1 sequence (P34913 1-555): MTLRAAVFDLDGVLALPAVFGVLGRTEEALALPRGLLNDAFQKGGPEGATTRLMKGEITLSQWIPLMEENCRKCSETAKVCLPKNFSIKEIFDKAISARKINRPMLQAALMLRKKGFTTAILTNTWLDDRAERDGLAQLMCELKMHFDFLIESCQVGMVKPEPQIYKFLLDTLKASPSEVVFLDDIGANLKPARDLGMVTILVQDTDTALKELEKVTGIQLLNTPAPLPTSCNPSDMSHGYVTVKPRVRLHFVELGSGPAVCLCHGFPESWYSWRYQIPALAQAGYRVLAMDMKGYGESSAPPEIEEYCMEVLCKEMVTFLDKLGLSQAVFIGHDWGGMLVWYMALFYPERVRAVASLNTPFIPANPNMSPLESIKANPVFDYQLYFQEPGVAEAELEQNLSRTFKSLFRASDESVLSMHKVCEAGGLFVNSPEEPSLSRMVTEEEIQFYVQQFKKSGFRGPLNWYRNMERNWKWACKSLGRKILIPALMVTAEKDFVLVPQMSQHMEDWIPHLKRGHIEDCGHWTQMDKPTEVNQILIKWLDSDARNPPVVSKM
Kind of experiment: fluorescent PHOME hydrolysis assay with recombinant sEH; Lineweaver–Burk and Dixon plots. Type of experiment: biochemical.

The term Ki denotes a dissociation constant, usually derived from enzyme kinetics or from competition with a known ligand.

As for `CC1(C)Oc2ccc3ccc(=O)oc3c2[C@H](O)[C@@H]1O` [compound 1, (−)cis-Khellactone], the inhibitory constant (Ki) worked out at 3.5 µM.
